In paper PMC4980083 (JCI insight, 2016):

What was measured:
LNCaP95 cells [1] = assay: Western blot of cell cycle G1/S-related proteins in LNCaP95 cells; assay type: cell-based, human; conditions: enzalutamide 5 μM, EPI-002 25 μM, I-EPI-002 5 μM; 48 hours
LNCaP95 cells [2] = assay: Cell cycle analysis of LNCaP95 cells; assay type: cell-based, human; conditions: I-EPI-002 5 μM, EPI-002 25 μM, 48 hours
LNCaP95 cells [3] = assay: LNCaP95 proliferation, BrdU incorporation; assay type: cell-based, human; conditions: I-EPI-002 2 μM, EPI-002 25 μM, enzalutamide 5 μM; 2 days
recombinant AR LBD = target: T1, recombinant AR LBD (Homo sapiens, UniProt P10275); assay: Fluorescence polarization competition binding, AR LBD; conditions: 1 nM fluorescently labeled ligand, AR LBD 25 nM
T1 sequence (P10275 669-900 limits assumed): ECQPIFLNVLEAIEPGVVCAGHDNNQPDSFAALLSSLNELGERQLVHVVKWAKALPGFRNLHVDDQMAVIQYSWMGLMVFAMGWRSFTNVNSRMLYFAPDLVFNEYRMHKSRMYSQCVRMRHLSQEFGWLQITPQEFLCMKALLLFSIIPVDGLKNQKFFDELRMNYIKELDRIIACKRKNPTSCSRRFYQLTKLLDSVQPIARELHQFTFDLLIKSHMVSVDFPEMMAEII

[4] = target: T2, endogenous full-length AR (Homo sapiens, UniProt P10275, T878A); assay: AR transcriptional activity, PSA
T2 sequence (P10275 1-920 T878A): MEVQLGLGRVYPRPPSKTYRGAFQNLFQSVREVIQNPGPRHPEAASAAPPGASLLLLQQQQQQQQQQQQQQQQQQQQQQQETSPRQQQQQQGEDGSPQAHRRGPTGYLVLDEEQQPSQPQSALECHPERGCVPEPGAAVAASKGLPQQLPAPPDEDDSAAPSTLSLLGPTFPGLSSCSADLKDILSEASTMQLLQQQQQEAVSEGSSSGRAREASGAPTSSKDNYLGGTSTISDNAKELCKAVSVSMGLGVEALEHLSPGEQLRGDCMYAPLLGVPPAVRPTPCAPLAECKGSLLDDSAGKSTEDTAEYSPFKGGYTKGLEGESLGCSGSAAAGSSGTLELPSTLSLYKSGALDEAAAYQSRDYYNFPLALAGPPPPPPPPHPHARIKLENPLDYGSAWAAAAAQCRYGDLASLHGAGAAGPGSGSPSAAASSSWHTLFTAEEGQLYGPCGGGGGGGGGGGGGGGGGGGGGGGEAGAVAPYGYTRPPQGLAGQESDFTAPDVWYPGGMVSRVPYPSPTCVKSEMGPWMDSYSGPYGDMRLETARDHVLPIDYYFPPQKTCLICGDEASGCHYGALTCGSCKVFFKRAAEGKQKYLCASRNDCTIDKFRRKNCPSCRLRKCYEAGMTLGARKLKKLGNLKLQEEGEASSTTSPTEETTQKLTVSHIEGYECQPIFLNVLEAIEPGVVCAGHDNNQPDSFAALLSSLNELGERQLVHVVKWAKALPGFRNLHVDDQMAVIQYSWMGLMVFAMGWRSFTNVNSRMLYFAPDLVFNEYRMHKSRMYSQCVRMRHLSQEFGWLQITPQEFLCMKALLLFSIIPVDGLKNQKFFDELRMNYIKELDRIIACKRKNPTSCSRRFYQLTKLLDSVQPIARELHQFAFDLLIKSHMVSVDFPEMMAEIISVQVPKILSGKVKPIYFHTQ

recombinant AR AF-1 = target: T3, recombinant AR AF-1 (Homo sapiens, UniProt P10275); assay: Cell-free binding to recombinant AR AF-1, competition with cold EPI-002; conditions: preincubation with 60 μM EPI-002 for 6 hours
T3 sequence (P10275 142-485): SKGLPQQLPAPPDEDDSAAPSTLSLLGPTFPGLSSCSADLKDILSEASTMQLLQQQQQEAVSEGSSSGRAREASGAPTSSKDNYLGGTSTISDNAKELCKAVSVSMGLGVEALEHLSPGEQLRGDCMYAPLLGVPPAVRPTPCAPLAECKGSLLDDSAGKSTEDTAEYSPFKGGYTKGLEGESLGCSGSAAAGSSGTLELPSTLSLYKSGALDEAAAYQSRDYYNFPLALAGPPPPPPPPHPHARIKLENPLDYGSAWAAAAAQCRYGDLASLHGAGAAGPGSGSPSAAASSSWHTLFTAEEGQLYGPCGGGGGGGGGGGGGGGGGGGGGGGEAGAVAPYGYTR

Compound | expression of UBE2C, cyclinD3 and cyclin-dependent kinases (CDKs) (LNCaP95 cells [1]) | protein expression of the CDK inhibitor p27kip1 (LNCaP95 cells [1]) | decrease of S phase cells (LNCaP95 cells [2]) [fold] | effect on proliferation of LNCaP95 cells (LNCaP95 cells [3]) | competition with fluoromone for binding to AR LBD (recombinant AR LBD) | inhibition of AR transcriptional activity ([4]; 25 μM, R1881 1 nM) [%] | inhibition of AR transcriptional activity with increasing concentrations of androgen ([4]; increasing R1881, enzalutamide 5 μM, I-EPI-002 5 μM, EPI-002 25 μM) | displacement of ^123I-EPI-002 binding to AF-1 (recombinant AR AF-1)
CNC(=O)c1ccc(N2C(=S)N(c3ccc(C#N)c(C(F)(F)F)c3)C(=O)C2(C)C)cc1F [enzalutamide] | had no effect | had no effect |  |  |  |  |  | 
CC(C)(c1ccc(OC[C@H](O)CO)cc1)c1ccc(OC[C@H](O)CCl)cc1 [EPI-002, reference compound] |  |  | ≥ 2 | decreased proliferation | did not prevent ligand-binding | ~75 | maintained effective inhibition | displaced binding
